Structures are written as SMILES. Activity calls are given as the source filed them. The rule behind the calls is not given here.

The experiment addresses Ubiquitin-conjugating enzyme E2 N (Homo sapiens) (UniProt P61088). Description: UBC13 polyubiquitin chain formation inhibitors, SAR follow-up, biochemical, TR-FRET (AID 504687).

Sequence of Ubiquitin-conjugating enzyme E2 N (Homo sapiens) (P61088 whole entry, looked up): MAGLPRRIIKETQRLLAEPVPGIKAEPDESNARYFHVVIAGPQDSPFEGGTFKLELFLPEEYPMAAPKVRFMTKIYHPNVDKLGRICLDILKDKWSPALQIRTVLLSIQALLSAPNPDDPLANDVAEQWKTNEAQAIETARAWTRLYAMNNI

Consider `Cc1cc(C)c2sc(N(CCCN(C)C)C(=O)c3ccc(S(=O)(=O)N(C)C4CCCCC4)cc3)nc2c1`, for which the half-inhibitory concentration (IC50) is 7.48 µM.
As for `O=C(CCCCn1c(=O)c2ccccc2n(Cc2ccccc2F)c1=O)NC1CCN(Cc2ccccc2)CC1`, the figure is 2.99 µM; as for `CCN(Cc1ccccc1)S(=O)(=O)c1ccc(C(=O)N(CCCN(C)C)c2nc3cc(C)cc(C)c3s2)cc1`, 4.07 µM; as for `CC(=O)Nc1ccc(OCC(O)CN2CCN(CCN3C(=O)c4cccc5cccc(c45)C3=O)CC2)cc1` (stereo not drawn), 17.4 µM.
As for `O=C(C1COc2ccccc2O1)N1CCN(CCN2C(=O)c3cccc4cccc(c34)C2=O)CC1` (stereo not drawn), the figure is > 100 µM (inactive); as for `O=C(NCC1CCN(Cc2ccccc2F)CC1)C1CCCN(c2ncnc3c2nc2n3CCCCC2)C1` (stereo not drawn), 10.7 µM; as for `CCN(Cc1ccccc1)S(=O)(=O)c1ccc(C(=O)N(CCCN(C)C)c2nc3cc4c(cc3s2)OCO4)cc1`, 4.47 µM.
As for `COC(=O)c1ccc(OCC(O)CN2CCN(CCN3C(=O)c4cccc5cccc(c45)C3=O)CC2)cc1` (stereo not drawn), the figure is 4.61 µM; as for `O=C(NCCCN1CCN(c2ccc(F)cc2)CC1)C1CCCN(c2ncnc3c2nc2n3CCCCC2)C1` (stereo not drawn), 1.92 µM; as for `O=C(Nc1ccc(F)c(Cl)c1)C1CCN(c2ncnc3c2nc2n3CCCCC2)CC1`, 6.08 µM.
In the case of `O=C(CCCn1c(=O)c2ccccc2n(Cc2cccc(F)c2)c1=O)NC1CCN(Cc2ccccc2)CC1`, the IC50 is 0.51 µM.
For the molecule `O=C(C1CCN(c2ncnc3c2nc2n3CCCCC2)CC1)N1CCN(c2ccccn2)CC1`, the IC50 entry is “inactive”.
The figure for `CN(C)CCCN(C(=O)c1ccc(S(=O)(=O)N2CCCCCC2)cc1)c1nc2ccc(Br)cc2s1` is 5.92 µM; for `CN(CCNC(=O)C1CCN(c2ncnc3c2nc2n3CCCCC2)CC1)Cc1ccccc1` it is 1.65 µM.
The figure for `Cc1ccc(OCC(O)CN2CCN(CCN3C(=O)c4cccc5cccc(c45)C3=O)CC2)c(C)c1` (stereo not drawn) is 4.75 µM; for `O=C1c2cccc3cccc(c23)C(=O)N1CC1CCN(CC(O)COCc2ccc3c(c2)OCO3)CC1` (stereo not drawn) it is 1.9 µM.
The figure for `Cc1cc(NC(=O)Cn2c(=O)n(CCCCC(=O)NC3CCN(Cc4ccccc4)CC3)c(=O)c3ccccc32)n[nH]1` is 12.9 µM.
For `Cc1ccc2nc(N(CCCN(C)C)C(=O)c3ccc(S(=O)(=O)N4CCc5ccccc5C4)cc3)sc2c1`, the IC50 was 4.83 µM.
In the case of `Cc1ccc(NC(=O)C2CCN(c3ncnc4c3nc3n4CCCCC3)CC2)cc1Cl`, the IC50 was 3.62 µM.
As for `Cc1c(NC(=O)CCCN2C(=O)c3cccc4cccc(c34)C2=O)c(=O)n(-c2ccccc2)n1C`, the figure is 2.65 µM.
Consider `CCOc1cccc2sc(N(CCCN(C)C)C(=O)c3ccc(S(=O)(=O)N(CC)Cc4ccccc4)cc3)nc12`, for which the IC50 was 6.56 µM.
As for `Cc1cc(NS(=O)(=O)c2ccc(NC(=O)CCCCCN3C(=O)c4ccccc4C3=O)cc2)nc(C)n1`, the figure is > 100 µM (inactive); as for `COc1ccc(CCNC(=O)CCCCCN2C(=O)c3ccccc3C2=O)cc1`, “inactive”.
As for `O=C(CCCn1c(=O)c2ccccc2n(Cc2ccc(Cl)cc2)c1=O)NC1CCN(Cc2ccccc2)CC1`, the figure is 0.35 µM.
As for `O=C(NCCCN1CCN(c2ccccc2)CC1)C1CCCN(c2ncnc3c2nc2n3CCCCC2)C1` (stereo not drawn), the IC50 was 4.28 µM.
As for `Cc1ccc(C)c(OCC(O)CN2CCN(CCN3C(=O)c4cccc5cccc(c45)C3=O)CC2)c1` (stereo not drawn), the figure is 5.46 µM.
As for `O=C(CCCCCN1C(=O)c2ccccc2C1=O)Nc1ccc(S(=O)(=O)Nc2ncccn2)cc1`, the figure is > 100 µM (inactive).
As for `CN(C)CCCN(C(=O)c1ccc(C(=O)c2ccccc2)cc1)c1nc2cc3c(cc2s1)OCO3`, the figure is 6.57 µM.
Take `O=C1c2cccc3cccc(c23)C(=O)N1CC1CCN(CC(O)COc2ccc3ccccc3c2)CC1` (stereo not drawn): the IC50 was 3.32 µM.
As for `CC1(C)Cc2c(sc(NC(=O)COc3ccc(Cl)cc3Cl)c2C(N)=O)C(C)(C)N1`, the figure is 1.66 µM; as for `CCCN1CCN(C(=O)C2CCN(c3ncnc4c3nc3n4CCCCC3)CC2)CC1`, 3.42 µM; as for `COc1ccccc1NC(=S)NC(=O)CCCCCN1C(=O)c2ccccc2C1=O`, > 100 µM (inactive).
For `O=C(CCCCCN1C(=O)c2ccccc2C1=O)Nc1ccc(S(=O)(=O)N2CCCCC2)cc1`, the IC50 is 0.47 µM.
Turning to `O=C(NCC1CCN(Cc2ccc(F)cc2)CC1)C1CCCN(c2ncnc3c2nc2n3CCCCC2)C1` (stereo not drawn), the IC50 was 3.53 µM.
As for `Cc1[nH]c2c(Cl)c(Cl)ccc2c1CCNC(=O)CCCCCN1C(=O)c2ccccc2C1=O`, the 50% inhibitory concentration (IC50) is 0.67 µM.
`N#Cc1ccccc1Cn1c(=O)n(CCCC(=O)NC2CCN(Cc3ccccc3)CC2)c(=O)c2ccccc21`: the IC50 is 0.63 µM.
The figure for `Cc1cc(OCC(O)CN2CCN(CCN3C(=O)c4cccc5cccc(c45)C3=O)CC2)ccc1C(C)C` (stereo not drawn) is 9.39 µM; for `O=C(CCCCn1c(=O)c2ccccc2n(Cc2ccccc2)c1=O)NC1CCN(Cc2ccccc2)CC1` it is 1.63 µM.
As for `Cc1cc(C)c2sc(N(CCCN(C)C)C(=O)c3ccc(S(=O)(=O)N4CCc5ccccc5C4)cc3)nc2c1`, the figure is 2.28 µM; as for `CNCc1cc(Br)c(OCC(=O)Nc2ccccc2OC)c(OC)c1`, 6.37 µM.
Regarding `CCCCN(CC)S(=O)(=O)c1ccc(C(=O)N(CCCN(C)C)c2nc3cc(C)cc(C)c3s2)cc1`, the IC50 is 6.23 µM.
The figure for `COc1ccc2sc(N(CCCN(C)C)C(=O)c3ccc(S(=O)(=O)N4CCc5ccccc5C4)cc3)nc2c1` is 5.62 µM.
As for `O=C1c2cccc3cccc(c23)N1Cc1ccc(F)cc1`, the figure is 3.57 µM.
As for `O=C1c2cccc3cccc(c23)C(=O)N1CCN1CCN(CC(O)COc2ccc(C3CCCCC3)cc2)CC1` (stereo not drawn), the figure is 6.02 µM; as for `NNC(=O)c1ccc(CN2C(=O)c3cccc4cccc2c34)cc1`, 1.78 µM.
In the case of `CC(NC(=O)CCCCCN1C(=O)c2ccccc2C1=O)c1nc(-c2ccccc2)no1` (stereo not drawn), the IC50 is 10.6 µM.
With `O=C(C1CCN(c2ncnc3c2nc2n3CCCCC2)CC1)N1CCC(Cc2ccccc2)CC1`, the IC50 was 15 µM.
The figure for `COc1ccc(C)c2sc(N(CCCN(C)C)C(=O)c3ccc(S(=O)(=O)N(C)C)cc3)nc12` is 8.72 µM; for `CCCOC(=O)c1ccc(NC(=O)CCCCCN2C(=O)c3ccccc3C2=O)cc1` it is > 100 µM (inactive).
With `CC1CN(S(=O)(=O)c2ccc(NC(=O)CCCCCN3C(=O)c4ccccc4C3=O)cc2)CC(C)O1` (stereo not drawn), the IC50 result is “inactive”.
Take `CCCCOC(=O)c1cccc(NC(=O)CCCCCN2C(=O)c3ccccc3C2=O)c1`: the IC50 result is “inactive”.
As for `CN(C)CCCN(C(=O)c1ccc(S(=O)(=O)N2CCc3ccccc3C2)cc1)c1nc2ccc(F)cc2s1`, the figure is 8.1 µM; as for `C=CCc1ccccc1OCC(O)CN1CCN(CCN2C(=O)c3cccc4cccc(c34)C2=O)CC1` (stereo not drawn), 11.7 µM; as for `O=C(CCCCCN1C(=O)c2cccc3cccc(c23)C1=O)NCCO`, 12.7 µM.
The entry for `O=C(C1CCN(c2ncnc3c2nc2n3CCCCC2)CC1)N1CCOCC1` is “inactive”.
As for `Cc1nc2ccccc2c(=O)n1NC(=O)c1ccc(OC(F)F)cc1`, the figure is 15 µM; as for `CCOc1ccc(NC(=O)Cn2c(=O)n(CCCC(=O)NC3CCN(Cc4ccccc4)CC3)c(=O)c3ccccc32)cc1`, 3.06 µM; as for `O=C1c2cccc3cccc(c23)C(=O)N1CCN1CCN(CC(O)COc2ccccc2)CC1` (stereo not drawn), 17.6 µM.

(Values after PubChem BioAssay AID504687 (Sanford-Burnham Center for Chemical Genomics, 2011).)
